Measurements: patent publication US10894036B2, “Use of marizomib for the treatment of central nervous system (CNS) cancers” (Celgene International II Sàrl, priority 2016, dated 2021)
“And” between values parts separate entries of the source, which are not always exact repeats. Equal values may be shown once.

How the values were obtained:
20S Proteasome = test: 20S proteasome activity (% inhibition) in rodent brain; format: in vivo, mouse; parameters: 20S Proteasome Activity (% Inhibition), Blood, Trough / 20S Proteasome Activity (% Inhibition), Blood, Peak (2 hr) / 20S Proteasome Activity (% Inhibition), Tumor, Trough / 20S Proteasome Activity (% Inhibition), Tumor, Peak (2 hr): concentration or dose not given beside the values; details: tumor-bearing mouse, IV; individual mice 1 and 2; listed as BTZ
[1] = test system: malignant glioma stem-like cells; test: HIF1-α and VEGF levels in malignant glioma stem-like cells; format: cell-based
[2] = Phase 1b MRZ + TMZ (+RT) in newly diagnosed G4 MG: adverse events, DLT; format: in vivo, human
Description: This is a Phase 1b, open-label, 3+3, dose-escalation followed by dose-expansion study in patients with newly diagnosed G4 MG who have not previously received any local or systemic therapy for their G4 MG. The study will examine the effect of the addition of MRZ to standard of care treatment utilizing two study arms: Concomitant Treatment in which MRZ will be combined with TMZ+RT and Adjuvant Treatment in which MRZ will be combined with TMZ. The study will be conducted in two Stages. In Stage 1 (Dose-Escalation): 3 to 6 evaluable patients per MRZ dose cohort will be enrolled in each study arm. […] A total of approximately 48 patients will be enrolled in Stages 1 and 2 combined. Patients may not be enrolled in more than 1 MRZ dose cohort per arm.
Concomitant Treatment consists of a 6 week (42 day) treatment period, followed by a 4 (−1) week break from treatments. All patients will receive intravenous (IV) MRZ infusion on Days 1, 8, 15, 29, and 36 as a 10 minute infusion. IV hydration will be given prior to the infusion. Focal RT will be administered once daily, 5 days/week, for 30 doses over 6 weeks to a total dose of 60 Gy, starting on Day 1. TMZ will be administered once daily, 7 days/week, for 6 weeks, starting on Day 1, at a dose of 75 mg/m^2. Patients who complete Concomitant Treatment may continue on to Adjuvant Treatment.
All patients will receive IV MRZ infusion on Days 1, 8, and 15 as a 10 minute infusion, in 28-day cycles. IV hydration will be given prior to the infusion. TMZ will be administered daily for 5 consecutive days, starting on Day 1 of Cycle 1 (C1D1), at a dose of 150 mg/m^2. If tolerated in Cycle 1, the TMZ dose will be increased on Day 1 of Cycle 2 (C2D1) to a dose of 200 mg/m^2.

[3] = patient 301-C202, action taken None

CC(C)C[C@H](NC(=O)[C@H](Cc1ccccc1)NC(=O)c1cnccn1)B(O)O [bortezomib, reference compound]
20S Proteasome Activity (% Inhibition), Blood, Peak (2 hr) (20S Proteasome): 81% and 83%
20S Proteasome Activity (% Inhibition), Blood, Trough (20S Proteasome): 18% and 13%
20S Proteasome Activity (% Inhibition), Tumor, Peak (2 hr) (20S Proteasome): 83% and 93%
20S Proteasome Activity (% Inhibition), Tumor, Trough (20S Proteasome): 64% and 41%
HIF1-α and VEGF levels [1]: induces HIF1-α and VEGF levels

Cn1nnc2c(C(N)=O)ncn2c1=O [temozolomide, reference compound]
Abdominal pain, Grade ≥3 TEAE, drug related ([2]; human, in vivo): 0 (0.0%)
Confusional state, treatment-related TEAE, number of patients ([2]; human, in vivo): 0
Confusional state, treatment-related TEAE, percent of patients ([2]; human, in vivo): (0.0%)
Constipation, treatment-related TEAE, number of patients ([2]; human, in vivo): 3
Constipation, treatment-related TEAE, percent of patients ([2]; human, in vivo): (15.0%)
Decreased appetite, treatment-related TEAE, number of patients ([2]; human, in vivo): 4
Decreased appetite, treatment-related TEAE, percent of patients ([2]; human, in vivo): (20.0%)
Dehydration, Grade ≥3 TEAE, drug related ([2]; human, in vivo): 0 (0.0%)
Diarrhoea, treatment-related TEAE, number of patients ([2]; human, in vivo): 2
Diarrhoea, treatment-related TEAE, percent of patients ([2]; human, in vivo): (10.0%)
Dizziness, treatment-related TEAE, number of patients ([2]; human, in vivo): 2
Dizziness, treatment-related TEAE, percent of patients ([2]; human, in vivo): (10.0%)
Dose reduction, reason Adverse Event ([2]; human, in vivo): 1 (5.0%)
Fatigue, Grade ≥3 TEAE, drug related ([2]; human, in vivo): 1 (5.0%)
Fatigue, treatment-related TEAE, number of patients ([2]; human, in vivo): 11
Fatigue, treatment-related TEAE, percent of patients ([2]; human, in vivo): (55.0%)
Hallucination, Grade ≥3 TEAE, drug related ([2]; human, in vivo): 0 (0.0%)
Hallucination, treatment-related TEAE, number of patients ([2]; human, in vivo): 0
Hallucination, treatment-related TEAE, percent of patients ([2]; human, in vivo): (0.0%)
Headache, Grade ≥3 TEAE, drug related ([2]; human, in vivo): 0 (0.0%)
Headache, treatment-related TEAE, number of patients ([2]; human, in vivo): 0
Headache, treatment-related TEAE, percent of patients ([2]; human, in vivo): (0.0%)
Insomnia, Grade ≥3 TEAE, drug related ([2]; human, in vivo): 0 (0.0%)
Muscular weakness, treatment-related TEAE, number of patients ([2]; human, in vivo): 0
Muscular weakness, treatment-related TEAE, percent of patients ([2]; human, in vivo): (0.0%)
Musculoskeletal pain, Grade ≥3 TEAE, drug related ([2]; human, in vivo): 0 (0.0%)
Nausea, treatment-related TEAE, number of patients ([2]; human, in vivo): 9
Nausea, treatment-related TEAE, percent of patients ([2]; human, in vivo): (45.0%)
Number of Patients with drug Discontinued ([2]; human, in vivo): 0
Number of Patients with ≥1 Dose Reduction ([2]; human, in vivo): 1 (5.0%)
Ovarian cyst, Grade ≥3 TEAE, drug related ([2]; human, in vivo): 0 (0.0%)
Pelvic infection, Grade ≥3 TEAE, drug related ([2]; human, in vivo): 0 (0.0%)
Platelet count decreased, Grade ≥3 TEAE, drug related ([2]; human, in vivo): 1 (5.0%)
Platelet count decreased, treatment-related TEAE, number of patients ([2]; human, in vivo): 3
Platelet count decreased, treatment-related TEAE, percent of patients ([2]; human, in vivo): (15.0%)
Rash maculo-papular, treatment-related TEAE, number of patients ([2]; human, in vivo): 3
Rash maculo-papular, treatment-related TEAE, percent of patients ([2]; human, in vivo): (15.0%)
Vomiting, Grade ≥3 TEAE, drug related ([2]; human, in vivo): 0 (0.0%)
Vomiting, treatment-related TEAE, number of patients ([2]; human, in vivo): 7
Vomiting, treatment-related TEAE, percent of patients ([2]; human, in vivo): (35.0%)
SAE Dehydration, relationship to drug ([2]; in vivo): Not Suspected/
SAE Fatigue, relationship to drug ([2]; in vivo): Not Suspected/
SAE Hallucination, relationship to drug ([2]; in vivo): Not Suspected/
SAE Nausea, relationship to drug ([2]; in vivo): Not Suspected/
SAE Vomiting, relationship to drug ([2]; in vivo): Not Suspected/
SAE Nephrolithiasis, relationship to drug ([2]; patient 104-C302, action taken None): Not Suspected/
SAE Confusional state, relationship to drug ([2]; patient 301-A202, action taken None): Not Suspected/
SAE Ovarian cyst, relationship to drug ([2]; patient 301-C202, action taken Dose Delayed): Not Suspected/
SAE Convulsion, relationship to drug [2, 3]: Not Suspected/
SAE Pelvic infection, relationship to drug [2, 3]: Not Suspected/
